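Exposure lasted 48 hours, with cells grown in 96-well plates and compounds tested at five concentrations. TGI is the concentration that stops growth completely.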
Key:
Assay in all cases: NCI tumour cell line growth inhibition, 48 h
[1] = test system: DLD-1 colon
[2] = test system: DMS 114 small cell lung
[3] = test system: DMS 273 small cell lung
[4] = test system: HOP-18 NSCLC
[5] = test system: KM20L2 colon
[6] = test system: LXFL 529 NSCLC
[7] = test system: M19-MEL melanoma
[8] = test system: RXF 393 renal
[9] = test system: RXF-631 renal
[10] = test system: SNB-78 CNS
[11] = test system: SR leukemia
[12] = test system: XF 498 CNS

Measured: TGI

C[N+](C)(C)CC(=O)N/N=c1\cc(C(=O)Nc2ccc(N=O)cc2C#N)oc2cc(O)ccc12
> 100 µM: all assays above

Reference: PubChem BioAssay (NCI)
